Measurements: patent publication US9932561B2, “Differentiating induced pluripotent stem cells into glucose-responsive, insulin-secreting progeny” (Mayo Foundation for Medical Education and Research, priority 2011, dated 2018)
Where no end group is shown, it is not given here.

Experiments:
Type in all cases: cell-based, human
[1] = system: iPS-derived pancreatic endoderm cells; assay: RT-PCR of pancreatic hormone and islet marker genes during guided differentiation; details: following inclusion of GLP-1 with HGF, IGF and DAPT
Procedure: (R&D systems) and 100 ng/mL activin A (Peprotech) in advanced RPMI (A-RPMI, Invitrogen) with Pen/Strep for 1 day, followed by treatment with 100 ng/mL activin A in A-RPMI supplemented with 0.2% FBS (Invitrogen) for two days. At step two, cells were cultured in A-RPMI medium containing 50 ng/mL FGF10 (R&D systems), 0.25 μM KAAD-cyclopamine (CYC), and 2% FBS for 2 days. Cells were then treated with 50 ng/mL FGF10, 0.25 μM CYC, and 2 μM all-trans Retinoic Acid (RA) (Sigma) in DMEM (Invitrogen) supplemented with Pen/Strep, 1× B27 supplement (Invitrogen) for 4 days at step three. Cells were then cultured in the presence of 50 ng/mL FGF10, 300 nM ILV (Axxora), and 55 nM GLP-1 (Sigma) in DMEM with 1 × B27 for 4 days at step four. In step five, differentiation medium included 10 μM DAPT (Sigma) and 55 nM GLP-1 in DMEM with 1× B27 and culture lasted 6 days. […]
To determine the expression of endocrine-specific transcription factors and pancreas-specific genes throughout differentiation, the gene expression pattern was analyzed at each stage of differentiation. RT-PCR detected high levels of FOXA2 expression after 3 days of differentiation, confirming induction of definitive endoderm cells (FIG. 8A). […]

[2] = system: iPS-derived islet-like clusters; assay: C-peptide release assay, glucose stimulated secretion, ELISA; details: for C-peptide secretion in response to glucose challenge when the agent is left out of the cocktail: HCF#1-derived islet-like clusters differentiated without ILV or without GLP-1, glucose 10 mM and 27.7 mM
Procedure: (R&D systems) and 100 ng/mL activin A (Peprotech) in advanced RPMI (A-RPMI, Invitrogen) with Pen/Strep for 1 day, followed by treatment with 100 ng/mL activin A in A-RPMI supplemented with 0.2% FBS (Invitrogen) for two days. At step two, cells were cultured in A-RPMI medium containing 50 ng/mL FGF10 (R&D systems), 0.25 μM KAAD-cyclopamine (CYC), and 2% FBS for 2 days. Cells were then treated with 50 ng/mL FGF10, 0.25 μM CYC, and 2 μM all-trans Retinoic Acid (RA) (Sigma) in DMEM (Invitrogen) supplemented with Pen/Strep, 1× B27 supplement (Invitrogen) for 4 days at step three. Cells were then cultured in the presence of 50 ng/mL FGF10, 300 nM ILV (Axxora), and 55 nM GLP-1 (Sigma) in DMEM with 1 × B27 for 4 days at step four. In step five, differentiation medium included 10 μM DAPT (Sigma) and 55 nM GLP-1 in DMEM with 1× B27 and culture lasted 6 days. Finally, in step six, cells were cultured in the presence of 50 ng/mL hepatocyte growth factor (HGF) (R&D systems), 50 ng/mL Insulin-like growth factor 1 (IGF-1) (R&D systems) and 55 nM GLP-1 in CMRL-1066 medium (Invitrogen) with 1× B27 for 6 days. All experiments were repeated more than three times.
A C-peptide release assay was performed by incubating derived islet-like clusters in Krebs-Ringer solution with bicarbonate and HEPES (KRBH; 129 mM NaCl, 4.8 mM KCl, 2.5 mM CaCl2, 1.2 mM KH2PO4, 1.2 mM MgSO4, 5 mM NaHCO3, 10 mM HEPES, and 0.1% (wt/vol) BSA). […] C-peptide or proinsulin levels were determined using an ultrasensitive C-peptide/proinsulin ELISA kit (Alpco Diagnostics).
C-peptide secretion from iPS-derived islet-like clusters in response to glucose challenge, the critical physiological function of pancreatic beta cells, was analyzed. To determine whether islet-like cells are capable of C-peptide secretion in response to glucose induction, cells were exposed to increasing concentrations of glucose and secreted C-peptide was measured by ELISA. […]

[3] = system: iPS-derived definitive endoderm cells; assay: Induction of pancreatic endoderm from iPS-derived definitive endoderm, immunofluorescence for PDX1, NEUROD1, NGN3; details: definitive endoderm cells treated with FGF10, RA and CYC in the presence of ILV; without ILV low levels of PDX1 expression
Procedure: For immunostaining, iPS cells were fixed for 20 minutes at room temperature (RT) in 4% paraformaldehyde (PFA) in PBS, washed in PBS, and blocked for 30 minutes with 5% FBS in PBST (PBS with 0.1% Tween-20 (Sigma). Cells were stained with primary antibodies overnight at 4° C., rinsed by PBS, and incubated with secondary antibodies 1 hour at RT (Martinez-Fernandez et al., Circ. Res., 105:648-656 (2009)). Cells at different stages of differentiation were fixed and stained with primary and secondary antibodies. Primary and secondary antibodies used for characterization of iPS and derived cells were: SSEA-1, SSEA-4, TRA-1-60, TRA-1-81 (Millipore #SCR001), OCT4 (Cell Signaling Technology #2750), SOX2 (Cell Signaling Technology #2748), KLF4 (Abcam #ab26648), NANOG (Abcam #ab21624), mouse anti-S0X17 (R&D Systems #MAB1924), rabbit anti-HNF3 beta/FOXA2 (Millipore #07-633), rabbit anti-PDX1 (Santa Cruz Biotechnology #sc-25403), rabbit anti-NGN3 (Millipore #AB5684), rabbit anti-NEUROD1 (Abcam #16508), mouse anti-insulin (Sigma #I2018), rabbit anti-C-peptide (Cell Signaling Technology #4593), rabbit anti-Insulin (Cell Signaling Technology #4590), mouse anti-proinsulin C-peptide (Millipore #CBL94), mouse anti-glucagon (Abcam #ab10988), MafA (Santa Cruz Biotechnology #sc-66958), and rabbit anti-somatostatin (Dako #A0566). […]

Row | Compound | gene expression of pancreatic hormones and islet markers by RT-PCR [1] | C-peptide secretion in response to glucose challenge when the agent is left out of the cocktail [2] | C-peptide secretion ([2]; pancreatic endoderm treated with HGF, IGF, Exendin-4 and DAPT, data not shown) | expression of pancreatic endoderm markers [3]
1 | glucagon like peptide-1 (HAEGTFTSDVSSYLEGQAAKEFIAWLVKGR; ends and bridges not checked; UniProt P01275 98-127, looked up) [GLP-1, GLP-1 polypeptide (Sigma), used at 55 nM in the differentiation medium] | positive gene expression of pancreatic hormones | failed to secrete C-peptide | – | –
2 | Exendin-4 | – | – | failed produce detectable C-peptide secretion | –
3 | CC(C)[C@H]1C(=O)N[C@H](CO)Cc2c[nH]c3cccc(c23)N1C [ILV, indolactam V] | – | failed to secrete C-peptide | – | resulted in cells expressing PDX1, NEUROD1, and NGN3
